Test results published in patent US20260069584A1, “METHODS OF TREATING CHRONIC MYELOID LEUKEMIA USING THE TYROSINE KINASE INHIBITOR VODOBATINIB” (Sun Pharma Advanced Research Company Ltd., priority 2022, published 2026).

What was measured:
in vivo = format: in vivo; details: 14-day study
[1] = Single- and repeat-dose studies in preclinical models, oral route

For `Cc1ccc(C(=O)NNC(=O)c2c(C)cccc2Cl)cc1C#Cc1cnc2ccccc2c1` [compound of Formula I, N′-(2-chloro-6-methylbenzoyl)-4-methyl-3-[2-(3-quinolyl)ethynyl]-benzohydrazide], the “dose up to which no mortality or severe clinical signs were observed” value (in vivo) was no more than 625 mg/kg/day, the NOAEL at 14 days (in vivo; dog, in vivo) was 83 mg/kg/day and the TEAE cough (Part C: adverse events; 19 subjects) was 21.1%. For the same molecule, the TEAE dyspnea (Part C: adverse events; 19 subjects) was 21.1%, the TEAE fatigue (Part C: adverse events; 19 subjects) was 21.1% and the TEAE nausea (Part C: adverse events; 19 subjects) was 26.3%. It also gave a TEAE neutropenia (Part C: adverse events; 19 subjects) of 21.1%, a TEAE rash (Part C: adverse events; 19 subjects) of 26.3% and a TEAE thrombocytopenia (Part C: adverse events; 19 subjects) of 31.6%. The Abdominal pain (Part C: adverse events; All Grades (N = 19)) was 2 (10.5) n (%), the Anaemia (Part C: adverse events; All Grades (N = 19)) was 3 (15.8) n (%) and the Arthralgia (Part C: adverse events; All Grades (N = 19)) was 2 (10.5) n (%). For the same molecule, the Back pain (Part C: adverse events; All Grades (N = 19)) was 2 (10.5) n (%), the COVID-19 (Part C: adverse events; All Grades (N = 19)) was 2 (10.5) n (%) and the Chest pain (Part C: adverse events; All Grades (N = 19)) was 2 (10.5) n (%). The Constipation (Part C: adverse events; All Grades (N = 19)) was 3 (15.8) n (%), the Contusion (Part C: adverse events; All Grades (N = 19)) was 2 (10.5) n (%) and the Cough (Part C: adverse events; All Grades (N = 19)) was 4 (21.1) n (%). For the same molecule, the Diarrhoea (Part C: adverse events; All Grades (N = 19)) was 3 (15.8) n (%), the Dizziness (Part C: adverse events; All Grades (N = 19)) was 2 (10.5) n (%) and the Dry skin (Part C: adverse events; All Grades (N = 19)) was 3 (15.8) n (%). For the same molecule, the Dyspnoea (Part C: adverse events; All Grades (N = 19)) was 4 (21.1) n (%), the Fatigue (Part C: adverse events; All Grades (N = 19)) was 4 (21.1) n (%) and the Flank pain (Part C: adverse events; All Grades (N = 19)) was 2 (10.5) n (%). For the same molecule, the Headache (Part C: adverse events; All Grades (N = 19)) was 3 (15.8) n (%), the Herpes zoster (Part C: adverse events; All Grades (N = 19)) was 2 (10.5) n (%) and the Hypertension (Part C: adverse events; All Grades (N = 19)) was 3 (15.8) n (%). The Hyperuricaemia (Part C: adverse events; All Grades (N = 19)) was 2 (10.5) n (%), the Hypocalcaemia (Part C: adverse events; All Grades (N = 19)) was 2 (10.5) n (%) and the Hypokalaemia (Part C: adverse events; All Grades (N = 19)) was 2 (10.5) n (%). For the same molecule, the Hypophosphataemia (Part C: adverse events; All Grades (N = 19)) was 2 (10.5) n (%), the Muscle spasms (Part C: adverse events; All Grades (N = 19)) was 2 (10.5) n (%) and the Nasopharyngitis (Part C: adverse events; All Grades (N = 19)) was 2 (10.5) n (%). For the same molecule, the Nausea (Part C: adverse events; All Grades (N = 19)) was 5 (26.3) n (%), the Neutropenia (Part C: adverse events; All Grades (N = 19)) was 4 (21.1) n (%) and the Oropharyngeal pain (Part C: adverse events; All Grades (N = 19)) was 2 (10.5) n (%). For the same molecule, the Pancytopenia (Part C: adverse events; All Grades (N = 19)) was 2 (10.5) n (%), the Rash (Part C: adverse events; All Grades (N = 19)) was 5 (26.3) n (%) and the thrombocytopenia (Part C: adverse events; All Grades (N = 19)) was 6 (31.6) n (%). It also gave an Abdominal pain (Part C: adverse events; Grade 3 or 4 (N = 9)) of 0 n, an Anaemia (Part C: adverse events; Grade 3 or 4 (N = 9)) of 1 n and an Arthralgia (Part C: adverse events; Grade 3 or 4 (N = 9)) of 0 n. For the same molecule, the Back pain (Part C: adverse events; Grade 3 or 4 (N = 9)) was 0 n, the COVID-19 (Part C: adverse events; Grade 3 or 4 (N = 9)) was 1 n and the Chest pain (Part C: adverse events; Grade 3 or 4 (N = 9)) was 0 n. For the same molecule, the Constipation (Part C: adverse events; Grade 3 or 4 (N = 9)) was 0 n, the Contusion (Part C: adverse events; Grade 3 or 4 (N = 9)) was 0 n and the Cough (Part C: adverse events; Grade 3 or 4 (N = 9)) was 0 n. For the same molecule, the Diarrhoea (Part C: adverse events; Grade 3 or 4 (N = 9)) was 1 n, the Dizziness (Part C: adverse events; Grade 3 or 4 (N = 9)) was 0 n and the Dry skin (Part C: adverse events; Grade 3 or 4 (N = 9)) was 0 n. For the same molecule, the Dyspnoea (Part C: adverse events; Grade 3 or 4 (N = 9)) was 1 n, the Fatigue (Part C: adverse events; Grade 3 or 4 (N = 9)) was 0 n and the Flank pain (Part C: adverse events; Grade 3 or 4 (N = 9)) was 0 n. The Headache (Part C: adverse events; Grade 3 or 4 (N = 9)) was 0 n, the Herpes zoster (Part C: adverse events; Grade 3 or 4 (N = 9)) was 0 n and the Hypertension (Part C: adverse events; Grade 3 or 4 (N = 9)) was 0 n. The Hyperuricaemia (Part C: adverse events; Grade 3 or 4 (N = 9)) was 0 n, the Hypocalcaemia (Part C: adverse events; Grade 3 or 4 (N = 9)) was 1 n and the Hypokalaemia (Part C: adverse events; Grade 3 or 4 (N = 9)) was 1 n. For the same molecule, the Hypophosphataemia (Part C: adverse events; Grade 3 or 4 (N = 9)) was 0 n, the Muscle spasms (Part C: adverse events; Grade 3 or 4 (N = 9)) was 0 n and the Nasopharyngitis (Part C: adverse events; Grade 3 or 4 (N = 9)) was 0 n. It also gave a Nausea (Part C: adverse events; Grade 3 or 4 (N = 9)) of 1 n, a Neutropenia (Part C: adverse events; Grade 3 or 4 (N = 9)) of 3 n and an Oropharyngeal pain (Part C: adverse events; Grade 3 or 4 (N = 9)) of 0 n. For the same molecule, the Pancytopenia (Part C: adverse events; Grade 3 or 4 (N = 9)) was 1 n, the Rash (Part C: adverse events; Grade 3 or 4 (N = 9)) was 0 n and the thrombocytopenia (Part C: adverse events; Grade 3 or 4 (N = 9)) was 4 n. For the same molecule, the tolerability (Part C: adverse events; heavily pre-treated CML population) was “well tolerated”, the “Grade 3 or 4 TEAE neutropenia” value (Part C: adverse events; in vivo) was 33.3% and the “Grade 3 or 4 TEAE thrombocytopenia” value (Part C: adverse events; in vivo) was 44.4%. The adverse events ([1]; multiple efficacious doses) was “no specific adverse events”, the systemic exposure ([1]; oral route, daily dosing) was “systemic bioavailability” and the AUC ([1]; plasma, oral) was 13400 ng·h/mL.
